Reference: patent US8541573B2, “Substituted sulfonamide compounds” (Gruenenthal GmbH, priority 2008, dated 2013)

Key:
human B1R = target: T1, human B1R (Homo sapiens, UniProt P46663); experiment: Functional investigation on the bradykinin 1 receptor (B1R), cell-based fluorescent calcium-mobilization assay (FLIPR/Novostar), human; conditions: 10 μM test substance; CHO K1 cells stably transfected with human B1R gene; agonist Lys-Des-Arg9-bradykinin at EC80; % inhibition compared with maximum achievable inhibition; read-out: B1R antagonism, human [10 μM] % inhibition
T1 construct: expressed in transfected cells; host or cells: CHO K1 cells
T1 sequence (P46663 1-353): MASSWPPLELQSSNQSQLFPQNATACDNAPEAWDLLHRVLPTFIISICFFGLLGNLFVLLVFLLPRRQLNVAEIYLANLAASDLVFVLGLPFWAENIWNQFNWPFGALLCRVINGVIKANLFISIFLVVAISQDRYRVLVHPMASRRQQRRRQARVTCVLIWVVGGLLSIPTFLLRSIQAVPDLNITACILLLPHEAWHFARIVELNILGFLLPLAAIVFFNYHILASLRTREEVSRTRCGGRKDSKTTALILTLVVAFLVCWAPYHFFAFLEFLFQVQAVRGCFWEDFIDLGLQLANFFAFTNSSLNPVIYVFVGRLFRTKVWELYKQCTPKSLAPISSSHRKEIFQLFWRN
Protocol: (§1) The agonistic or antagonistic action of substances can be quantified on the bradykinin 1 receptor (B1R) of the human and rat species with ectopically expressing cell lines (CHO K1 cells) and with the aid of a Ca^2+-sensitive dyestuff (Fluo-4) in a fluorescent imaging plate reader (FLIPR). The figure in % activation is based on the Ca^2+ signal after addition of Lys-Des-Arg^9-bradykinin (0.5 nM) or Des-Arg^9-bradykinin (100 nM). Antagonists lead to a suppression of the Ca^2+ inflow after addition of the agonist. % inhibition compared with the maximum achievable inhibition is stated.
(§2) The agonistic or antagonistic action of substances can be determined on the bradykinin 1 receptor (B1R) of humans and rats by means of a cell-based flourescent calcium-mobilization assay. According to this assay agonist-induced increase of intracellular free Ca^2+ is quantified by means of a Ca^2+-sensitive dye (Fluo-4 type, Molecular Probes Europe BV, Leiden, Netherlands), in a Fluorescent Imaging Plate Reader (FLIPR, Molecular Devices, Sunnyvale, USA) and/or the Novostar (BMG Labtech GmbH, Offenburg, Germany).
(§3) Chinese hamster ovary cells (CHO K1 cells), which are stably transfected with the human B1R gene (hB1R cells) or with the B1R gene of rats (rB1R cells), are used. For functional investigations these cells are seeded into black 96-well plates with a clear bottom (BD Biosciences, Heidelberg, Germany or Greiner, Frickenhausen, Germany) in a density of 20,000-35,000 cells/well. The cells are incubated overnight in a humidified atmosphere at 37° C. and 5% CO2 in culture medium (hB1R cells: Nutrient Mixture Ham's F12, Gibco Invitrogen GmbH, Karlsruhe, Germany or DMEM, Sigma-Aldrich, Taufkirchen, Germany; rB1R cells: D-MEM/F12, Gibco Invitrogen GmbH, Karlsruhe, Germany) with 10 vol. % FBS (foetal bovine serum, Gibco Invitrogen GmbH, Karlsruhe, Germany).
(§4) On the following day the cells are loaded with the Ca^2+-sensitive dye Fluo-4-AM (Molecular Probes Europe BV, Leiden, Netherlands):
(§5) Method A: The medium of the cells is removed and cell plates are incubated with loading solution, which contains 2.13 μM Fluo-4-AM, 2.5 mM probenecid (Sigma-Aldrich, Taufkirchen, Germany), and 10 mM HEPES (Sigma-Aldrich, Taufkirchen, Germany) in HBSS buffer (Hank's buffered saline solution, Gibco Invitrogen GmbH, Karlsruhe, Germany) for 60 minutes at 37° C. After the plates are washed twice with HBSS buffer, HBSS buffer supplemented 0.1% BSA (bovine serum albumin; Sigma-Aldrich, Taufkirchen, Germany), 5.6 mM glucose and 0.05% gelatine (Merck KGaA, Darmstadt, Germany) is added. Cell plates are incubated for at least 20 minutes in the dark at room temperature before they are used for the Ca^2+ measurement in the FLIPR or Novostar.
(§6) Method B: The plates are washed with buffer A (15 mM HEPES, 80 mM NaCl, 5 mM KCl, 1.2 mM CaCl2, 0.7 mM MgSO4, 2 mg/ml glucose, 2.5 mM probenecid) and subsequently loaded with buffer A containing 2.4 μM Fluo-4-AM and 0.025% pluronic F127 (Sigma-Aldrich, Taufkirchen, Germany) for 60 minutes at 37° C. Cell plates are washed twice with buffer A. Then, buffer A supplemented with 0.05% BSA and 0.05% gelatine is added and cell plates are incubated in the dark at room temperature for at least 20 minutes before measurement in the FLIPR or Novostar is started.
(§7) The Ca^2+-dependent fluorescence is measured both before and after the addition of substances (λex=488 nm, λem=540 nm). For quantification of the effect the highest fluorescence intensity (FC, fluorescence counts) over time is given. The FLIPR protocol consists of two substance additions, done within the instrument while continuously monitoring the Ca^2+-dependent fluorescence at 540 nm. When the Novostar was used, one addition had to be done outside the instrument. Test substances (10 μM) are initially pipetted onto the cells and the intracellular Ca^2+ rise is compared with the control (hB1R: Lys-Des-Arg9-bradykinin>=50 nM; rB1R: Des-Arg9-bradykinin>=1 μM). […]

B1R of rats = target: T2, B1R of rats (Rattus norvegicus, UniProt P97583); experiment: Functional investigation on the bradykinin 1 receptor (B1R), cell-based fluorescent calcium-mobilization assay (FLIPR/Novostar), rat; conditions: 10 μM test substance; CHO K1 cells stably transfected with rat B1R gene; agonist Des-Arg9-bradykinin at EC80; % inhibition compared with maximum achievable inhibition; read-out: B1R antagonism, rat [10 μM] % inhibition
T2 construct: expressed in transfected cells; host or cells: CHO K1 cells
T2 sequence (P97583 1-337): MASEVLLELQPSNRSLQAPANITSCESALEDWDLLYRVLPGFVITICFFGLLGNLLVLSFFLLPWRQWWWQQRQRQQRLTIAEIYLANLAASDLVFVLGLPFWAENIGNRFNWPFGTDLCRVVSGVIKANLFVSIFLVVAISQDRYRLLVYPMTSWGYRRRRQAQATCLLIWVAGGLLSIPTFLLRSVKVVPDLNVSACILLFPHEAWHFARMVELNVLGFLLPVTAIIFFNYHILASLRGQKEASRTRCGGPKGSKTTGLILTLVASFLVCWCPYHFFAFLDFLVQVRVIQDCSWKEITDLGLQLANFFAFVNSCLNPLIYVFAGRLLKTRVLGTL
Protocol: as §1, §2, §3, §4, §5, §6, §7

| inhibition at 10 µM (human B1R) [%] | inhibition at 10 µM (B1R of rats) [%] | SMILES |
| --- | --- | --- |
| 107 | 101 | COc1cc(C)c(S(=O)(=O)N(C)CCOCC(=O)N2CCC(CNC(=O)c3ccncc3)(N3CCN(C)CC3)CC2)c(C)c1 [Example 1, N-((1-(2-(2-(4-methoxy-N,2,6-trimethylphenylsulfonamido)ethoxy)acetyl)-4-(4-methylpiperazin-1-yl)piperidin-4-yl)methyl)isonicotinamide] |
| 81 | 74 | CC(=O)NCC1(N2CCN(C)CC2)CCN(C(=O)CCC2CCCCN2S(=O)(=O)c2cc(C)c(Cl)cc2C)CC1 (stereo not drawn) [Example 2, N-((1-(3-(1-(4-chloro-2,5-dimethylphenylsulfonyl)piperidin-2-yl)propanoyl)-4-(4-methylpiperazin-1-yl)piperidin-4-yl)methyl)acetamide] |
| 103 | 104 | COc1cc(C)c(S(=O)(=O)N2CCCCC2COCC(=O)N2CCC(CNC(=O)Cc3ccccc3)(N3CCN(C)CC3)CC2)c(C)c1 (stereo not drawn) [Example 3, N-((1-(2-((1-(4-methoxy-2,6-dimethylphenylsulfonyl)piperidin-2-yl)methoxy)acetyl)-4-(4-methylpiperazin-1-yl)piperidin-4-yl)methyl)-2-phenylacetamide] |
| 67 | 59 | CN1CCN(C2(CNC(=O)Cc3ccccc3)CCN(C(=O)CC3CCCCN3S(=O)(=O)c3cccc(C(F)(F)F)c3)CC2)CC1 (stereo not drawn) [Example 4, N-((4-(4-methylpiperazin-1-yl)-1-(2-(1-(3-(trifluoromethyl)phenylsulfonyl)piperidin-2-yl)acetyl)piperidin-4-yl)methyl)-2-phenylacetamide] |
| 102 | 104 | COc1cc(C)c(S(=O)(=O)N2CCCCC2COCC(=O)N2CCC(CNC(=O)c3ccccc3)(N3CCN(C)CC3)CC2)c(C)c1 (stereo not drawn) [Example 5, N-((1-(2-((1-(4-methoxy-2,6-dimethylphenylsulfonyl)piperidin-2-yl)methoxy)acetyl)-4-(4-methylpiperazin-1-yl)piperidin-4-yl)methyl)benzamide] |
| 99 | 24 | Cc1cc(S(=O)(=O)N2CCCCC2CCC(=O)N2CCC(CNC(=O)c3ccccc3)(N3CCN(C)CC3)CC2)c(C)cc1Cl (stereo not drawn) [Example 6, N-((1-(3-(1-(4-chloro-2,5-dimethylphenylsulfonyl)piperidin-2-yl)propanoyl)-4-(4-methylpiperazin-1-yl)piperidin-4-yl)methyl)benzamide] |
| 102 | 105 | CC(=O)NCC1(N2CCN(C)CC2)CCN(C(=O)COCC2CCc3ccccc3N2S(=O)(=O)c2ccc(Cl)c(Cl)c2)CC1 (stereo not drawn) [Example 7, N-((1-(2-((1-(3,4-dichlorophenylsulfonyl)-1,2,3,4-tetrahydroquinolin-2-yl)methoxy)acetyl)-4-(4-methylpiperazin-1-yl)piperidin-4-yl)methyl)acetamide] |
| 75 | 29 | CN1CCN(C2(CNC(=O)Cc3ccccc3)CCN(C(=O)CC(NS(=O)(=O)c3ccc4ccccc4c3)c3ccccc3)CC2)CC1 (stereo not drawn) [Example 8, N-((4-(4-methylpiperazin-1-yl)-1-(3-(naphthalene-2-sulfonamido)-3-phenylpropanoyl)piperidin-4-yl)methyl)-2-phenylacetamide] |
|  | 102 | COc1cc(C)c(S(=O)(=O)N2CCCCC2CCOCC(=O)N2CCC(CNC(=O)c3ccncc3)(N3CCN(C)CC3)CC2)c(C)c1 (stereo not drawn) [Example 53, N-((1-(2-(2-(1-(4-Methoxy-2,6-dimethylphenylsulfonyl)piperidin-2-yl)ethoxy)acetyl)-4-(4-methylpiperazin-1-yl)piperidin-4-yl)methyl)isonicotinamide] |
|  | 66 | CN1CCN(C2(CNC(=O)c3ccncc3)CCN(C(=O)CCCN(C)S(=O)(=O)c3cccc(C(F)(F)F)c3)CC2)CC1 [Example 54, N-((1-(4-(N-Methyl-3-(trifluoromethyl)phenylsulfonamido)butanoyl)-4-(4-methylpiperazin-1-yl)piperidin-4-yl)methyl)isonicotinamide] |
